Laboratory results taken from patent US4490364A, “CCK Agonists II” (The Salk Institute for Biological Studies, priority 1983, dated 1984).
Non-standard residues stand in square brackets, D forms with d. Residues, ends and D or L forms follow the SMILES beside them. sY = N[C@@H](Cc1ccc(OS(=O)(=O)O)cc1)C(=O)O

How the values were obtained:
[1] = Ondetti and Pluscec; cited from earlier work
mouse = assay: anticonvulsive effect against picrotoxin-induced seizures in the mouse; assay type: in vivo; details: peptide about 0.8 micromoles per kg parenterally, then picrotoxin i.p., relative to CCK(1-8) = 100%
Procedure: The anticonvulsive effect is measured by the method as generally described in The European J. of Pharm., 65, 297 (1980). More specifically, a mouse is first injected parenterally with the peptide being tested with a single dose equal to about 0.8 micromoles per kilogram of body weight. Thereafter, picrotoxin is injected i.p. in an amount equal to about […] of body weight. The parameters that are measured: time until first tremor, time until first clonic seizure, time until first tonic seizure and time of latentia until death, measured from the time of injection of the picrotoxin.

muscle sphincter Oddii = details: cited from earlier work
[2] = tested on: secretion of gastric acid; details: i.v. at low dosages; cited from earlier work
perfused rat stomach = assay: gastrinic activity on perfused rat stomach, conductometric titration of HCl liberated after iv administration; assay type: in vivo
Procedure: (§1) To determine the effectiveness of the various synthetic peptides, they are tested for their ability to stimulate the contraction of the gall bladder, for gastrinic activity in the stomach and for their anticonvulsive effect. Certain well known tests are carried out, and the results are measured and compared to the activity of CCK(1-8). Some of the results are given as a percentage relative to the activity of CCK(1-8). The ability to stimulate the contraction of the gall bladder is measured using a modified method of Amer and Becvar, described in J. Endocrinology, 43, 637 (1969) and employing isolated strips of rabbit gall bladder.

[3] = tested on: isolated strips of rabbit gall bladder; assay: contraction of the gall bladder (CCK-activity), isolated strips of rabbit gall bladder; assay type: cell-based
Procedure: as §1

Compound	activity compared with the complete molecule of cholecystokinin-pancreozymin [1]	Delay until first tonic seizure (efficacy) (mouse) [%]	Delay until time of death (efficacy) (mouse) [%]	action on the muscle sphincter Oddii (muscle sphincter Oddii)	gastrinic activity in causing secretion of gastric acid [2]	gastrinic activity % /Pentagastrin 100%/ (perfused rat stomach; relative to pentagastrin = 100%, perfused rat stomach, iv) [%]	CCK-activity % /CCK (1-8) 100%/ ([3]; relative to CCK(1-8) = 100%, contraction of isolated rabbit gall bladder strips) [%]	gastrinic activity (perfused rat stomach; result in words)	CCK activity compared with CCK(1-8) ([3]; result in words)
CSCC[C@H](NC(=O)[C@H](Cc1ccc(OS(=O)(=O)O)cc1)NC(=O)[C@@H](N)CC(=O)O)C(=O)NCC(=O)N[C@@H](Cc1c[nH]c2ccccc12)C(=O)N[C@@H](CCSC)C(=O)N[C@@H](CC(=O)O)C(=O)N[C@@H](Cc1ccccc1)C(N)=O [CCK (1-8)]	considerably higher activity than the complete molecule of cholecystokinin-pancreozymin	100	100	strong relaxing action	some gastrinic activity				
CSCC[C@H](NC(=O)[C@H](Cc1c[nH]c2ccccc12)NC(=O)[C@@H](C)NC(=O)[C@H](CCSC)NC(=O)[C@H](Cc1ccc(OS(=O)(=O)O)cc1)NC(C)=O)C(=O)N[C@@H](CC(=O)O)C(=O)N[C@@H](Cc1ccccc1)C(N)=O [[D-Ala^4]-Ac-CCK (2-8), Ac--Tyr(OSO3 Na)--Met--D--Ala--Trp--Met--Asp--Phe--NH2] (Ac-[sY]M[dA]WMDF-NH2)		100	126			0	40		
H--Asp--Tyr(OSO3 Na)--Nle--Gly--Trp--Nle--Hyp(OSO3 Na)--Tyr(OCH3)--NH2								substantially no gastrinic activity	CCK activity significantly greater than CCK(1-8)
